Assay: Solubility parameter δ estimated from tabulated molecular substituent constants (Fedors)
Settings: difference to the solubility parameter of retinol
Description: Solubility attributes of two or more materials with respect to each other are generally reflected in the “solubility parameter”, δ, which is expressed in the units (cal/cm^3)^1/2.
The value of the solubility parameter can be estimated from tabulated molecular substituent constants such as those described by Fedors. These substituent constants can be found in Solubility and Related Properties by Kenneth C. […] Generally, according to Textbook of Polymer Science, 2nd Ed., Billmeyer, solubility can be expected if the difference of the solubility parameters of two materials is less than about 2 units.

Q: For `CC1CC(OC(=O)c2ccccc2O)CC(C)(C)C1` (stereo not drawn) [Homomenthyl Salicylate], which “δN − δRETINOL” value is on record?
A: 1.14 (cal/cm^3)^1/2

Q: For `CC1CCC(C(C)C)C(OC(=O)c2ccccc2N)C1` (stereo not drawn) [Menthyl Anthranilate], which “δN − δRETINOL” value is on record?
A: 0.13 (cal/cm^3)^1/2

Q: For `CCCCC(CC)COC(=O)C(C#N)=C(c1ccccc1)c1ccccc1` (stereo not drawn) [Octocrylene], which “δN − δRETINOL” value is on record?
A: 0.74 (cal/cm^3)^1/2

Q: Which “δN − δRETINOL” value does the source give for `CCCCC(CC)COC(=O)c1ccc(N(C)C)cc1` (stereo not drawn) [Octyl Dimethyl PABA] here?
A: −0.33 (cal/cm^3)^1/2

Q: Which “δN − δRETINOL” value does the source give for `CCCCC(CC)COC(=O)C=Cc1ccc(OC)cc1` (stereo not drawn) [Octyl Methoxy Cinnamate] here?
A: −0.29 (cal/cm^3)^1/2

Q: For DEA Methoxysalicylate, which “δN − δRETINOL” value is on record?
A: 2.94 (cal/cm^3)^1/2

— US20030206932A1, “Novel topical compositions” (priority 1994, published 2003)
